Among the data in publication PMC6365106 (Clinical pharmacology and therapeutics, 2016) are inhibition and IC50 values, retold here.

For data set [1], the target named is T1, OATP1B1 (Homo sapiens, UniProt Q9Y6L6).
T1 sequence (Q9Y6L6 1-691): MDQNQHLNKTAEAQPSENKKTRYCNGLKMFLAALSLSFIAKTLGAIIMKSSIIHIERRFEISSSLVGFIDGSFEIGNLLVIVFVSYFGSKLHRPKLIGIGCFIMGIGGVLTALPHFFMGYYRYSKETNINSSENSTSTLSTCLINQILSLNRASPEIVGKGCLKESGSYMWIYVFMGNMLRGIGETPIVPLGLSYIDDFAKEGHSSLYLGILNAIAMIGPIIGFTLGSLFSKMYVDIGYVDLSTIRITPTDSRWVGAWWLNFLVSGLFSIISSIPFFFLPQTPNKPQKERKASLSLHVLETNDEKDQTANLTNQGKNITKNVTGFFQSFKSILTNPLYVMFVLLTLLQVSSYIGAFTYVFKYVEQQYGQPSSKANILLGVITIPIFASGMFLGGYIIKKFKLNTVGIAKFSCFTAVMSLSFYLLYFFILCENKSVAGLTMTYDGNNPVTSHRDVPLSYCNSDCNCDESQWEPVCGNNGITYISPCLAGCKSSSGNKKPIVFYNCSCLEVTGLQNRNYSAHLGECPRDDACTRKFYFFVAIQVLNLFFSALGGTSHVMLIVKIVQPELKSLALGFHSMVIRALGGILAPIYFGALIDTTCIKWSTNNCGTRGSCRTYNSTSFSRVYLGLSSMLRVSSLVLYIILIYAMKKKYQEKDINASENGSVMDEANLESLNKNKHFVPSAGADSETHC
Put plainly: in vitro. Format: cell-based. The conditions noted are these: oatp1b1-transfected cells.

In data set [2] the target is T2, OAT1 (Homo sapiens, UniProt Q4U2R8).
T2 sequence (Q4U2R8 1-563): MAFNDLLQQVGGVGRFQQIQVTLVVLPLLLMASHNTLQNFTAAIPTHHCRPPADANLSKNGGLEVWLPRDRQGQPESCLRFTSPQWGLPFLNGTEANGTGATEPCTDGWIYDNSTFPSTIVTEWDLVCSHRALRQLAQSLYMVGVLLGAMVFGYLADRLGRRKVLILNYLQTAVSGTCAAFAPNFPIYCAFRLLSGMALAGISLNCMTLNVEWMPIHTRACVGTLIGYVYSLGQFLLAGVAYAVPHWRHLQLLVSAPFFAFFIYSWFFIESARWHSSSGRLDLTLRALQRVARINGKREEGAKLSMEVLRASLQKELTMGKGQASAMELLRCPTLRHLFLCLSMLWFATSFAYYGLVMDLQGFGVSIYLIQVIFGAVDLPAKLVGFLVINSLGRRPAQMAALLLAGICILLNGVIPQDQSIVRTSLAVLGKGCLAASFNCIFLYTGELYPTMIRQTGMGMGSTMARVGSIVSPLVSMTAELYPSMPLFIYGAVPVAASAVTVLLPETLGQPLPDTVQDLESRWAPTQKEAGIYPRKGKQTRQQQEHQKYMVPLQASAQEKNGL
The experiment in a line: 3H-HDA uptake in OAT1-expressing HEK293 cells, blocked by probenecid. It counts as cell-based. The conditions noted are these: HEK293, read-out: % inhibition at 30 μM.

In data set [3] the target is T1, OATP1B1. Put plainly: in vitro. The conditions noted are these: hek293 cells.
In data set [4] the target is T3, OAT3 (Homo sapiens, UniProt Q8TCC7).
T3 sequence (Q8TCC7 1-542): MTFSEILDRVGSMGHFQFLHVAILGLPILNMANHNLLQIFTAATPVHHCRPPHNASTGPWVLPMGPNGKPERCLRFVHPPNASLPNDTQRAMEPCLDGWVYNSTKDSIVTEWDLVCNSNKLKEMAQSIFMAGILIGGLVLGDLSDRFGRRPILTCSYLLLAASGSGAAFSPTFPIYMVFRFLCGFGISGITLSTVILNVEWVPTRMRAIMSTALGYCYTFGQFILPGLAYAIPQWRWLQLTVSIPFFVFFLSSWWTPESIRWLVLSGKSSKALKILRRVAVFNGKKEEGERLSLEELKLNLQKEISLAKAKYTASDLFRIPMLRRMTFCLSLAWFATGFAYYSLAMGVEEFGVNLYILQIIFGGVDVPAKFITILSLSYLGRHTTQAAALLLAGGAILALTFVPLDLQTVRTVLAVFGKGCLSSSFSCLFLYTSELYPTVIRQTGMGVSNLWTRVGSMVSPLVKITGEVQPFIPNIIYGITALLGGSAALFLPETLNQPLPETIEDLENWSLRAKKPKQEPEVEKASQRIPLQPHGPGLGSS
Put plainly: 3H-HDA uptake in OAT3-expressing HEK293 cells, blocked by probenecid. The conditions noted are these: HEK293, read-out: % inhibition at 30 μM. It counts as cell-based.

For data set [5], the target named is T2, OAT1. The experiment in a line: 3H-TDA uptake in OAT1-expressing HEK293 cells, blocked by probenecid. It counts as cell-based. The conditions noted are these: HEK293, read-out: % inhibition at 30 μM.
Data set [6] concerns the target T1, OATP1B1. Put plainly: in vitro. The conditions noted are these: hek293 cells. The source holds these as a separate data set.
Data set [7] has as its target T3, OAT3. The experiment in a line: 3H-TDA uptake in OAT3-expressing HEK293 cells, blocked by probenecid. It counts as cell-based. The conditions noted are these: HEK293, read-out: % inhibition at 30 μM.

Some results are limits rather than exact numbers.

The term inhibition denotes the share of the control response that was lost under treatment. In data set [1], `C[C@H](CCC(=O)NCCS(=O)(=O)O)[C@H]1CC[C@H]2[C@@H]3CC[C@@H]4C[C@H](OS(=O)(=O)O)CC[C@]4(C)[C@H]3CC[C@]12C` [TLS, Taurolithocholate 3-sulfate] registered an inhibition at 30 µM of over 70%.

As a reminder, the IC50 is the point on the concentration scale where inhibition reaches its midpoint. Higher therefore signals weaker potency in that assay. Take `O=C(O)CCCCCCCCCCCCCCC(=O)O` [HDA, hexadecanedioic acid]: the inhibition at 30 µM was over 30% in data set [2] and over 70% in data set [4]. In addition, the IC50 in data set [3] is 1600 to 4000 nM.

With `C[C@H](CCC(=O)NCC(=O)O)[C@H]1CC[C@H]2[C@@H]3CC[C@@H]4C[C@H](O)CC[C@]4(C)[C@H]3C[C@H](O)[C@]12C` [Glycodeoxycholate], in data set [1], the inhibition at 30 µM is over 70%.

As for `O=C(O)CCCCCCCCCCCCC(=O)O` [TDA, tetradecanedioic acid], the inhibition at 30 µM in data set [5] is over 30%; in data set [7], over 70%. In data set [6], this molecule gave an IC50 of 1600 to 4000 nM.
